Test results published in article PMC6264190, “Interaction of α-Melanocortin and Its Pentapeptide Antisense LVKAT: Effects on Hepatoprotection in Male CBA Mice” (Molecules, 2011).
Entries after “also recorded” stand apart in the source; their conditions may differ.

How the values were obtained:
LVKAT = test: Tryptophan fluorescence spectrofluorometric titration of sense peptides with antisense peptide LVKAT; format: binding
Protocol: Tryptophan fluorescence was used to detect binding of antisense pentapeptide LVKAT to the central binding region of α-MSH molecule. […] One was attributed to α-MSH and the other to its complex with antisense pentapeptide LVKAT. […] Consequently, the proposed model is given by Equation (1) and Equation (2), where Kd is the dissociation constant of the complex: […]
SENSE - LVKAT ⇄ SENSE + LVKAT(1)
(§1) Figure 2 A typical titration of 2.5 µM solution of α-MSH (sense) with LVKAT (antisense) at 25 °C, pH = 7.4, 10 mM phosphate buffer. The concentration of LVKAT was varied from 50 to 750 μM. Fluorescence units (f.u.) are given as a ratio of signals obtained from sample and reference PMTs. Inset: Fitting curve at 360 nm according to the Equation (1) and Equation (2).
as §1, with “Figure 3” for “Figure 2”, “of 25” for “of 2.5”, “of EHFRW” for “of α-MSH”, “to 500 µM.” for “to 750 μM.”
Fluorescence spectra were measured at 25 °C by OLIS RSM 1000F spectrofluorimeter (Olis, Bogart, GA, USA) equipped with thermostatted cell holder. […] Data obtained from the titrations were analyzed with the Specfit software package.

antibody to L-α-MSH = conditions: ref [15],[16]; cited from earlier work
[1] = tested on: acetaminophen-induced hepatotoxicity in male CBA mice; test: Plasma alanine aminotransferase (ALT) activity 24 h after acetaminophen administration; format: in vivo; conditions: mean ± SD; 24 h after acetaminophen 150 mg/kg i.g.; α-MSH 2.5 mg/kg, LVKAT 0.8 mg/kg or their equimolar mixture i.p. 1 hour before; group size 6-8; untreated controls 10087 ± 9595; α-MSH significantly lower, LVKAT and mixture p > 0.05; normal animals 37.7 ± 7.7
Protocol: (§2) Experimental animals were male CBA mice, 12-16 weeks old, weighing 20-25 g and bred at the Ruđer Bošković Institute. Experiments were performed according to the ILAR Guide for the Care and Use of Laboratory Animals, Council Directive 86/609/EEC, and Croatian Animal Protection Act (Official Gazette 135/06). The animals were kept in a room with dark-light cycle (12h/12h) and constant temperature (22 ± 1 °C). Hepatotoxicity was induced according to the slightly modified procedure of Guarner et al.. To induce hepatic drug-metabolizing enzymes mice were given 0.3 g/L phenobarbitone-sodium (Kemika, Zagreb, Croatia) for 7 days. […] (Krka, Novo Mesto, Slovenia) 150 mg/kg was given intragastrically (i.g.), via a gastric tube, in a volume of 0.5 mL. […] Control animals were treated with saline (0.9% NaCl). The size of experimental groups was 6-8. Mice that spontaneously died were excluded from histopathological or biochemical analysis. […] However, the difference was not statistically significant.
(§3) Sections of the liver were fixed in 10% phosphate buffered formalin, embedded in paraffin, sectioned at 4 µm, and stained with hematoxilin and eosin. […] Alanine aminotransferase (ALT) and aspartate aminotransferase (AST) activity was determined from plasma by standard laboratory techniques. […]

[2] = tested on: acetaminophen-induced hepatotoxicity in male CBA mice; test: Plasma aspartate aminotransferase (AST) activity 24 h after acetaminophen administration; format: in vivo; conditions: mean ± SD; 24 h after acetaminophen 150 mg/kg i.g.; α-MSH 2.5 mg/kg, LVKAT 0.8 mg/kg or their equimolar mixture i.p. 1 hour before; group size 6-8; untreated controls 6091 ± 4275; α-MSH significantly lower, LVKAT and mixture p > 0.05; normal animals 109.3 ± 25.3
Protocol: as §2, §3

[3] = tested on: acetaminophen (APAP)-induced liver lesions in male CBA mice; test: Histopathological grading of acetaminophen (APAP)-induced liver lesions; format: in vivo; conditions: mean ± SD; acetaminophen 150 mg/kg i.g.; α-MSH 2.5 mg/kg, LVKAT 0.8 mg/kg or their equimolar mixture i.p. 1 hour before; scored at 24 hours; 0 = no lesions, 5 = severe; group size 6-8; untreated controls 4.8 ± 0.46; α-MSH p < 0.05, LVKAT and mixture p > 0.05 vs controls
Protocol: as §2, §3

[4] = tested on: acetaminophen induced hepatotoxicity; conditions: mouse model of acetaminophen induced hepatotoxicity; ref [15],[16]; cited from earlier work
Source text: Alpha-melanotropin (α-MSH) is an ancient, evolutionally conserved, tridecapeptide derived by the proteolytic cleavage from the pro-opiomelanocortin (POMC) hormone. It is currently the most widely studied melanocortin peptide in the context of tissue inflammation and cytoprotection. Recently, Turčić et al. […] Turčić et al. […] Sections of the liver were fixed in 10% phosphate buffered formalin, embedded in paraffin, sectioned at 4 µm, and stained with hematoxilin and eosin. Sections were examined by using light microscope, and grading of the liver lesions was done on 0-5 point scale according to Silva et al. (0 = no lesions, 1 = minimal, 2 = mild, 3 = moderate, 4 = marked and 5 = severe lesions). Alanine aminotransferase (ALT) and aspartate aminotransferase (AST) activity was determined from plasma by standard laboratory techniques. Plasma was sep ...

male CBA mice = test: Spontaneous deaths in the acetaminophen hepatotoxicity model; format: in vivo; conditions: starting number eight per group; acetaminophen 150 mg/kg i.g.; α-MSH 2.5 mg/kg, LVKAT 0.8 mg/kg or equimolar mixture i.p.; none died in control; difference not statistically significant
Protocol: as §2

[5] = tested on: hepatoprotective effects of α-MSH on the APAP induced hepatic lesions; test: Modulation of α-MSH hepatoprotection by antisense peptide in vivo (overall); set-up: species or system male CBA mice
Protocol: as §2, §3

| Substance | binding to LVKAT in fluorescence titration (in words) (LVKAT; same experimental conditions as for α-MSH (25 °C, pH = 7.4, 10 mM phosphate buffer)) | binding to antibody to L-α-MSH (antibody to L-α-MSH) | blood (plasma) alanine aminotransferase (ALT) [1] | stoichiometry of complex with LVKAT (LVKAT; SVD analysis of fluorescence titration spectra, Specfit, no higher order complexes) | blood (plasma) aspartate aminotransferase (AST) [2] | liver lesion score (scale 0-5) [3] | hepatoprotective effect (in words) [4] | animals that died spontaneously (male CBA mice) | effect of LVKAT alone (hepatoprotection, in words) ([5]; LVKAT 0.8 mg/kg i.p. 1 hour before acetaminophen 150 mg/kg i.g., p > 0.05 vs untreated controls) | effect on hepatoprotection by α-MSH (in words) ([5]; LVKAT given with α-MSH (equimolar) i.p. 1 hour before acetaminophen 150 mg/kg i.g., histopathology, ALT and AST) |
| --- | --- | --- | --- | --- | --- | --- | --- | --- | --- | --- |
| Ac-SYSMEHFRWGKPV-NH2 [D-α-MSH, D-enantiomer of α-MSH] | very weak (if any) binding | does not bind antibody to L-α-MSH | – | – | – | – | – | – | – | – |
| Ac-SYSMEHFRWGKPV-NH2 [α-MSH, tridecapeptide derived by the proteolytic cleavage from the pro-opiomelanocortin (POMC) hormone] | – | – | 585.8 ± 1424 U/L | 1 to 1 complex formation | 539.5 ± 459.6 U/L | 2 ± 0.75 | strong and dose dependent hepatoprotective effects; also recorded: potent hepatoprotective effects | none of the animals died | – | – |
| LVKAT [pentapeptide antisense to central region of α-MSH that serves as the pharmacophore for melanocortin receptors] | – | – | – | – | – | 5 ± 0 | – | – | not hepatoprotective per se | abolishes hepatoprotective effects of α-MSH |
